# Assay results: patent US20180228815A1, “NARINGENIN AND ASIATIC ACID COMBINATION TREATMENT OF CANCERS” (The Chinese University of Hong Kong, priority 2016, published 2018)
# Where two headings read alike, the source gives them in different places.
# Tests used:
# [1] = system: B16F10 melanoma; assay: B16F10 melanoma syngeneic mouse tumor model, tumor growth; format: in vivo; conditions: for tumor growth at higher dosages: dosages higher than 10 mg/kg AA or 50 mg/kg NG; for B16F10 melanoma volume and weight: monotherapy, different doses; for melanoma progression: single treatment, 10 mg/kg AA or 50 mg/kg NG
# Excerpt: B16F10 melanoma syngeneic tumor model was generated in C57/Bl6 male mice (aged week 8 and 25 g body weight) via subcutaneous injection of 1×10^6 B16F10 cells. Lewis Lung Cancer syngeneic tumor model was also generated in C57/Bl6 male mice via subcutaneous injection of 2×10^6 luciferase-labeled LLC cells. When average tumor size reached 50 mm^3, mice were randomly divided into four groups respectively receiving drug administration as described below. Tumor progression was monitored by calculating tumor volume with vernier calipers as well as by bioluminescence imaging with IVIS Spectrum system (Xenogen, PerkinElmer, Inc., MA, USA). All animal experiments were carried out by a protocol approved by Animal Ethics Experimental Committee at the Chinese University of Hong Kong. Two TCM-based drugs were used in this study, including asiatic acid (95% HLPC-purified, Nanning, China) and naringenin (98% HLPC-purified, Xian, China). Both drugs were dissolved in DMSO and Tween-80 at the ratio of 9:1, which was further diluted 10 times with saline as working solution. […] Studies were carried out by a protocol approved by Animal Ethics Experimental Committee at the Chinese University of Hong Kong.
# [2] = system: B16F10 tumor cells; assay: TGF-beta1-induced VEGF mRNA expression by tumor cells (real-time PCR); format: cell-based
# [3] = system: p-Smad3, Smad7; assay: Western blot of p-Smad3 and Smad7 in bone marrow-derived NK cells with TGF-β1; format: cell-based, mouse; conditions: 10 μM of AA, 100 μM of NG; TGF-β1 (5 ng/ml)
# Description: FIGS. 14A-14C. […] (FIGS. 14A, 14B) Two-color immunofluorescence detecting NK1.1+ p-Smad3+ and NK1.1+ Smad7+ NK cells in LLC tumor microenvironment. NK1.1+ cells (green), p-Smad3+ or Smad7+ cells (red), DAPI (blue). […] Scale bar, […]. […] To further explore the mechanism of combination therapy facilitating NK cell immunity against cancer in TGF-β rich microenvironment, 10 μM of AA and 100 μM of NG (according to the molar ratio in vivo) were applied on bone marrow-derived NK cells in vitro. […] After euthanasia, bone marrow cells were isolated from C57BL/6 mice following the protocol as previously described (10). Bone marrow cells were then seeded at the density of 1×10^6 cells/ml in MEMα medium (Gibco, Thermo Fisher Scientific Inc., MA, USA) containing 10% FBS supplemented with 1 ng/ml IL-7, 10 ng/ml Flt3L, 30 ng/ml SCF, 50 ng/ml IL-15 (Peprotech, NJ, USA) and […] β-Mercaptoethanol (Gibco, Thermo Fisher Scientific Inc., MA, USA) and cultured for 4 days. Then transferred cells to MEMα medium containing 10% FBS supplemented with 50 ng/ml IL-15, 20 ng/ml IL-2 and […] β-Mercaptoethanol to induce NK cells maturation for another 3 days. Tumor tissues and cultured NK cells were lysed with ice-cold RIPA buffer, and then protein was isolated as previously described (2 6). Membranes were blocked with 5% BSA in PBS for 1 hour at room temperature before incubated with primary antibodies against Smad7, Id2, β-actin (Santa Cruz Biotechnology, Santa Cruz, Calif., USA), p-Smad3 and IRF2 (Cell signaling, MA, USA) overnight at 4° C., subsequently incubated with IRDye 800-conjugated secondary antibodies (Rockland immunochemicals, PA, USA). Target protein expression was then detected by LiCor/Odyssey infrared image system (LI-COR Biosciences, NE, USA) and analyzed with Image J software (NIH, Bethesda, Md., USA).
# [4] = system: bone marrow-derived NK cells; assay: Flow cytometry of bone marrow-derived NK cell differentiation (NK1.1+ CD122+); format: cell-based, mouse; conditions: for inhibitory effect of TGF-β1 on NK cell development (NK1.1+ CD122+): TGF-β1 (5 ng/ml)
# Description: FIGS. 15A-15B. Combination of AA and NG attenuates TGF-β1 induced inhibition on NK cell differentiation. […] (FIG. 15B) Flow cytometry detects that the effect of AA, NG, and their combination on bone marrow-derived NK differentiation in response to TGF-β1 (5 ng/ml). Each error bar represents the mean±SEM for groups of three independent experiments. *** p<0.001 compared to TGF-β1; ### p<0.001 as indicated.
# After euthanasia, bone marrow cells were isolated from C57BL/6 mice following the protocol as previously described (10). Bone marrow cells were then seeded at the density of 1×10^6 cells/ml in MEMα medium (Gibco, Thermo Fisher Scientific Inc., MA, USA) containing 10% FBS supplemented with 1 ng/ml IL-7, 10 ng/ml Flt3L, 30 ng/ml SCF, 50 ng/ml IL-15 (Peprotech, NJ, USA) and […] β-Mercaptoethanol (Gibco, Thermo Fisher Scientific Inc., MA, USA) and cultured for 4 days. Then transferred cells to MEMα medium containing 10% FBS supplemented with 50 ng/ml IL-15, 20 ng/ml IL-2 and […] β-Mercaptoethanol to induce NK cells maturation for another 3 days.
# Peripheral blood NK cells and cultured NK cells were analyzed using various markers as previously described (10), including rat anti-mouse CD16/CD32 antibody (BD Pharmingen, BD Biosciences, CA, USA), APC-conjugated anti-mouse NK1.1, PE-conjugated anti-mouse NKp46, PE-conjugated anti-mouse CD122 (eBioscience Inc., CA, USA) and Alexa 488-conjugated anti-mouse/human CD11b Antibody (Biolegend, CA, USA). After immunostaining, cells were resuspended with 200 μl staining buffer and analyzed with BD Accuri™ C6 Cytometer (BD Biosciences, CA, USA).
# [5] = system: Id2, IRF2; assay: Id2 and IRF2 expression in bone marrow-derived NK cells with TGF-β1 (real-time PCR, western blot); format: cell-based, mouse; conditions: bone marrow-derived NK cells in vitro
# Description: After euthanasia, bone marrow cells were isolated from C57BL/6 mice following the protocol as previously described (10). Bone marrow cells were then seeded at the density of 1×10^6 cells/ml in MEMα medium (Gibco, Thermo Fisher Scientific Inc., MA, USA) containing 10% FBS supplemented with 1 ng/ml IL-7, 10 ng/ml Flt3L, 30 ng/ml SCF, 50 ng/ml IL-15 (Peprotech, NJ, USA) and […] β-Mercaptoethanol (Gibco, Thermo Fisher Scientific Inc., MA, USA) and cultured for 4 days. Then transferred cells to MEMα medium containing 10% FBS supplemented with 50 ng/ml IL-15, 20 ng/ml IL-2 and […] β-Mercaptoethanol to induce NK cells maturation for another 3 days. […] Tumor tissues and cultured NK cells were lysed with ice-cold RIPA buffer, and then protein was isolated as previously described (2 6). Membranes were blocked with 5% BSA in PBS for 1 hour at room temperature before incubated with primary antibodies against Smad7, Id2, β-actin (Santa Cruz Biotechnology, Santa Cruz, Calif., USA), p-Smad3 and IRF2 (Cell signaling, MA, USA) overnight at 4° C., subsequently incubated with IRDye 800-conjugated secondary antibodies (Rockland immunochemicals, PA, USA). Target protein expression was then detected by LiCor/Odyssey infrared image system (LI-COR Biosciences, NE, USA) and analyzed with Image J software (NIH, Bethesda, Md., USA).
# [6] = system: NK1.1+ NK cells; assay: Two-color immunofluorescence of IFN-γ+ and granzyme B+ NK cells in LLC tumor microenvironment; format: in vivo, mouse
# Description: FIGS. 13A-13G. […] NK1.1+ cells (green), IFN-γ+ or granzyme B+ cells (red), DAPI (blue). Each error bar represents the mean±SEM for groups of three to four mice. * p<0.05, ** p<0.01, *** p<0.001 compared to Ctrl; ## p<0.01, ### p<0.001 as indicated. Scale bar, 100 μm. […] (FIGS. 13E, 13F) Effect of AA (10 μmol), NG ([…]), and their combination on levels of IFN-γ and granzyme B in supernatant of cultured splenic NK cells with TGF-β1 (5 ng/ml) detected by ELISA. (FIG. 13G) NK cell cytotoxicity assay with LLC as target cells at E:T ratio of 5:1, 10:1 and 20:1. Each error bar represents the mean±SEM for groups of three independent experiments. * p<0.05, ** p<0.01, *** p<0.001 compared to TGF-β1; # p<0.05, ## p<0.01, ### p<0.001 as indicated. Immunofluorescence staining was performed with 5 μm PLP fixed frozen sections of mouse tumor tissue to detect NK cell infiltration in tumor microenvironment and the protein levels of p-Smad3, Smad7, IFN-γ and granzyme B in these tumor infiltrated NK cells. Primary antibodies used for immunofluorescence staining include Alexa488 conjugated anti-mouse NK-1.1 (Biolegend, CA, USA), PE conjugated anti-mouse NKp46 (eBioscience Inc., CA, USA), anti-p-Smad2/3 (Santa Cruz Biotechnology, Santa Cruz, Calif.), anti-Smad7, anti-interferon gamma and anti-granzyme B (Abcam, MA, USA). All slides were mounted with DAPI containing mounting medium then analyzed with fluorescence microscope (Leica Microsystems, Wetzlar, Germany).
# [7] = system: B16F10 melanoma cells; assay: NK cell cytotoxicity assay (LDH release); format: cell-based, mouse; conditions: E:T ratio of 5:1, 10:1 and 20:1
# Description: It was next assessed whether the combination therapy enhances the tumor-killing capacity of NK cells by co-culturing […] NK cells with B16F10 melanoma cells at ratio of 5:1, 10:1 and 20:1. […] B16F10 melanoma cells were harvested as target cells and bone marrow-derived NK cells treated with AA or NG for 24 hours were harvested as effector cells. Cells were thoroughly washed and seeded in 96-well plates at the effector: target (E:T) ratios of 5:1, 10:1 and 20:1. Incubated in 5% CO2 incubator at 37° C. for 6 hours then detect the LDH release of each well with CytoTox 96® Non-Radioactive Cytotoxicity Assay kit (Promega Corporation, WI, USA). Read absorbance at 490 nm and calculated the percentage of NK cell mediated cytotoxicity with the following formula.
# [8] = Systemic toxicity in B16F10 melanoma-bearing mice; conditions: mouse, in vivo
# Excerpt: FIG. 5. […] Each bar represents the mean±SEM for groups of 6 mice.
# [9] = format: in vivo
# Description: FIG. 1. Determination of a safe dosage of AA or NG in normal mice. Groups of 4 normal mice were treated with different dosages of asiatic acid (AA) or naringenin (NG) for two weeks and various parameters were measured to determine a safe dosage for the use as therapeutic dose in cancer-bearing mice. As indicated by a highlighted box, AA at 10 mg/kg and NG at 50 mg/kg was selected. Each bar represents the mean±SEM for groups of 4 mice. * p<0.05, ** p<0.01 compared to untreated mice (BLK)
# A safe dosage of HLPC-purified naringenin (NG) and asiatic acid (AA) was first determined in normal mice by peritoneal injection with different dosages of AA or NG for toxicity assays and a dose of AA at 10 mg/kg body weight and NG at 50 mg//Kg body weight is selected for further examination of the therapeutic efficacy on cancer (FIG. 1). The effects of combined use of a safe dosage of naringenin (NG, 10 mg/kg) and asiatic acid (AA, 50 mg/kg) at a ratio of […] was selected and the therapeutic effect on cancer was tested in two syngeneic mouse models of invasive lung carcinoma (LLC) and melanoma (B16F10). […] Thus, the combination of NG and AA presents as a new emerging and promising therapy for tumor.
Compound,tumor growth at higher dosages [1],B16F10 melanoma volume and weight [1],melanoma progression [1],"TGF-beta1-induced angiogenesis (VEGF mRNA expression), inhibition by AA with NG added ([2]; B16F10 with TGF-beta1 (2 ng/ml), NG from 0.5 to 250 uM added to AA at luM)",TGF-β1-increased phosphorylation level of Smad3 [3],TGF-β1-induced suppression of Smad7 expression [3],inhibitory effect of TGF-β1 on NK cell development (NK1.1+ CD122+) [4],TGF-β1-induced suppression of IRF2 [5],TGF-β1-induced suppression of Id2 [5],IFN-γ-producing NK cells (IFN-γ+ NK1.1+ cells) [6],granzyme B-secreting NK cells (GB+ NK1.1+ cells) [6],NK cell-mediated cytotoxicity against melanoma cells [7],"systemic toxicity (peripheral white blood cell counts, serum LDH, AST and ALT, creatinine) [8]","safe dosage selected for use as therapeutic dose ([9]; normal mice treated for two weeks, groups of 4) [mg/kg]","NK1.1+ CD122+ cell (immature NK cells) proportion ([4]; TGF-β1 at 5 ng/ml, 80% without TGF-β1) [%]","TGF-beta1-induced angiogenesis (VEGF mRNA expression) ([2]; B16F10 cultured with TGF-beta1 (2 ng/ml), AA at luM)","safe dosage selected for use as therapeutic dose ([9]; mouse, in vivo, 2 weeks) [mg/kg]"
"O=C1CC(c2ccc(O)cc2)Oc2cc(O)cc(O)c21 (centres unmarked) [NG, 5,7-dihydroxy-2-(4-hydroxyphenyl)chroman-4-one]",no further significant improvement,Dose-dependent inhibitory effect,effectively inhibited,enhanced,attenuated,capable of restoring,moderately attenuated,significantly reduced,significantly reduced,significantly increased,significantly increased,increased,do not cause systemic toxicity,50,,,
TGF-β1: cytokine added to NK cell cultures to suppress NK cell development [reference compound],,,,,,,,,,,,,,,11,,
"C[C@H]1[C@H](C)CC[C@]2(C(=O)O)CC[C@]3(C)C(=CC[C@@H]4[C@@]5(C)C[C@@H](O)[C@H](O)[C@@](C)(CO)[C@@H]5CC[C@]43C)[C@H]12 [AA, Asiatic acid]",no further significant improvement,Dose-dependent inhibitory effect,effectively inhibited,,attenuated,capable of restoring,moderately attenuated,significantly reduced,significantly reduced,significantly increased,significantly increased,increased,do not cause systemic toxicity,,,significantly inhibit,10
